Results: US20240043435A1, “TYK-2 INHIBITOR” (BEIGENE, LTD., priority 2020, published 2024)

Columns and labels:
[1] = molecular target: T1, TYK2-JH2 (aa 575-869, in-house) protein (Homo sapiens, UniProt P29597); assay: TYK2-JH2 biochemical assay (HTRF probe displacement); assay type: binding; settings: Biochemical assay; read-out: TYK2-JH2 IC50
T1 construct: TYK2-JH2 (aa 575-869, in-house) protein; made in house
Outline: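 HTRF probe-displacement format: compound dilutions (10 points, 5-fold, from 500 uM in DMSO at 500×) were combined with 0.2 nM TYK2-JH2 protein for 0.5 h at room temperature in HEPES pH 7.5 buffer with MgCl2, BSA, DTT and Brij-35. Percent inhibition came from the 615/665 nm fluorescence ratio, fitted to a four-parameter logistic for IC50.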

[2] = system: pSTAT5/GM-CSF; assay: pSTAT5/GM-CSF cellular assay (JAK2 selectivity); assay type: cell-based; settings: for Selectivity fold (TYK2/JAK2): pSTAT5/GM-CSF IC50 over pSTAT4/IL-12 IC50
[3] = system: JAK2, TYK2/p-STAT4 (Tyr693) activated by IL-12 in NK-92 cell line; assay: IL-12-JAK2, TYK2/p-STAT4 (Tyr693) inhibition IC50 cellular assay; assay type: cell-based; settings: NK92, Cellular assay; read-out: pSTAT4/IL-12 IC50
Outline: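 p-STAT4 (Tyr693) in lysates was measured by AlphaLISA SureFire Ultra after a 30 min IL-12 challenge (40 ng/ml final) at 37° C. Overnight-starved, IL-2-free NK-92 cells had been pretreated 1 h with compound at 10000 to 0.61 nM (4-fold, 8 points). IC50 values came from four-parameter logistic fitting.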

T1 sequence (P29597 575-869): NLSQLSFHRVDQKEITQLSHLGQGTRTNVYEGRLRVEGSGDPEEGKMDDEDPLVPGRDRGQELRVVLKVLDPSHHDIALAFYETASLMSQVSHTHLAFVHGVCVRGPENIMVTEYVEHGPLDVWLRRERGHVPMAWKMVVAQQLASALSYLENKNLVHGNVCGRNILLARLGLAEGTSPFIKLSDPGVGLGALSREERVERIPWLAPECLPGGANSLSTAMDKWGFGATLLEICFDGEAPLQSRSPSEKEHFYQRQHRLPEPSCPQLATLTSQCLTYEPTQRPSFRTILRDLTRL

CC(=O)Nc1cc(Nc2cc(O[C@H]3C[C@H](O)C3)cc(S(C)(=O)=O)n2)c(-c2ccn(C)n2)cn1 [Example J16, N-(4-((4-((trans)-3-hydroxycyclobutoxy)-6-(methylsulfonyl)pyridin-2-yl)amino)-5-(1-methyl-1H-pyrazol-3-yl)pyridin-2-yl)acetamde]
IC50 [1]: 0.015 nM
IC50 [2]: > 10 µM
Selectivity fold (TYK2/JAK2) [2]: >3968 fold
IC50 [3]: 2.52 nM

CC(=O)Nc1cc(Nc2cc(O[C@H]3C[C@@H](O)C3)cc(S(C)(=O)=O)n2)c(-c2ccn(C)n2)cn1 [Example J17, N-(4-((4-((cis)-3-hydroxycyclobutoxy)-6-(methylsulfonyl)pyridin-2-yl)amino)-5-(1-methyl-1H-pyrazol-3-yl)pyridin-2-yl)acetamide]
IC50 [1]: 0.043 nM
IC50 [2]: > 10 µM
Selectivity fold (TYK2/JAK2) [2]: >1470 fold
IC50 [3]: 6.8 nM

COC1CC(Oc2cc(Nc3cc(NC(C)=O)ncc3-c3ccn(C)n3)nc(S(C)(=O)=O)c2)C1 (centres unmarked) [Example J18, N-(4-((4-(3-methoxycyclobutoxy)-6-(methylsulfonyl)pyridin-2-yl)amino)-5-(1-methyl-1H-pyrazol-3-yl)pyridin-2-yl)acetamide]
IC50 [1]: 0.028 nM
IC50 [2]: > 10 µM
Selectivity fold (TYK2/JAK2) [2]: >25062 fold
IC50 [3]: 0.399 nM

COCc1cc(Nc2cc(NC(C)=O)ncc2-c2ccn(C)n2)nc(S(C)(=O)=O)c1 [Example J19, N-(4-((4-(methoxymethyl)-6-(methylsulfonyl)pyridin-2-yl)amino)-5-(1-methyl-1H-pyrazol-3-yl)pyridin-2-yl)acetamide]
IC50 [1]: 0.015 nM
IC50 [2]: > 10 µM
Selectivity fold (TYK2/JAK2) [2]: >1137 fold
IC50 [3]: 0.882 nM

CC(=O)Nc1cc(Nc2cc(OCC#N)cc(S(C)(=O)=O)n2)c(-c2ccn(C)n2)cn1 [Example J20, N-(4-((4-(cyanomethoxy)-6-(methylsulfonyl)pyridin-2-yl)amino)-5-(1-methyl-1H-pyrazol-3-yl)pyridin-2-yl)acetamide]
IC50 [1]: 0.026 nM
IC50 [2]: > 10 µM
Selectivity fold (TYK2/JAK2) [2]: >3333 fold
IC50 [3]: 3 nM

COc1cc(Nc2cc(NC(C)=O)ncc2-c2ccn(C)n2)nc(S(C)(=O)=O)c1 [Example J21, N-(4-((4-methoxy-6-(methylsulfonyl)pyridin-2-yl)amino)-5-(1-methyl-1H-pyrazol-3-yl)pyridin-2-yl)acetamide]
IC50 [1]: 0.017 nM
IC50 [2]: > 10 µM
Selectivity fold (TYK2/JAK2) [2]: >13888 fold
IC50 [3]: 0.72 nM

CC(=O)Nc1cc(Nc2cc(OC3COC3)cc(S(C)(=O)=O)n2)c(-c2ccn(C)n2)cn1 [Example J22, N-(5-(1-methyl-1H-pyrazol-3-yl)-4-((6-(methylsulfonyl)-4-(oxetan-3-yloxy)pyridin-2-yl)amino)pyridin-2-yl)acetamide]
IC50 [1]: 0.037 nM
IC50 [2]: > 10 µM
Selectivity fold (TYK2/JAK2) [2]: >5181 fold
IC50 [3]: 1.93 nM

COc1ccc(S(C)(=O)=O)nc1Nc1cc(NC(C)=O)ncc1-c1ccn(C)n1 [Example J23, N-(4-((3-methoxy-6-(methylsulfonyl)pyridin-2-yl)amino)-5-(1-methyl-1H-pyrazol-3-yl)pyridin-2-yl)acetamide]
IC50 [1]: 0.044 nM
IC50 [2]: 1.35 µM
Selectivity fold (TYK2/JAK2) [2]: 1570 fold
IC50 [3]: 0.862 nM

CC(=O)Nc1cc(Nc2cc(OCC(C)O)cc(S(C)(=O)=O)n2)c(-c2ccn(C)n2)cn1 (centres unmarked) [Example J24, N-(4-((4-(2-hydroxypropoxy)-6-(methylsulfonyl)pyridin-2-yl)amino)-5-(1-methyl-1H-pyrazol-3-yl)pyridin-2-yl)acetamide]
IC50 [1]: 0.028 nM
IC50 [2]: > 10 µM
Selectivity fold (TYK2/JAK2) [2]: >1652 fold
IC50 [3]: 6.05 nM

CC(=O)Nc1cc(Nc2cc(OCC3COC3)cc(S(C)(=O)=O)n2)c(-c2ccn(C)n2)cn1 [Example J25, N-(5-(1-methyl-1H-pyrazol-3-yl)-4-((6-(methylsulfonyl)-4-(oxetan-3-ylmethoxy)pyridin-2-yl)amino)pyridin-2-yl)acetamide]
IC50 [1]: 0.025 nM
IC50 [2]: > 10 µM
Selectivity fold (TYK2/JAK2) [2]: >3436 fold
IC50 [3]: 2.91 nM

CC(=O)Nc1cc(Nc2cc(C#N)cc(S(C)(=O)=O)n2)c(-c2ccn(C)n2)cn1 [Example J26, N-(4-((4-cyano-6-(methylsulfonyl)pyridin-2-yl)amino)-5-(1-methyl-1H-pyrazol-3-yl)pyridin-2-yl)acetamide]
IC50 [1]: 0.023 nM
IC50 [2]: > 10 µM
Selectivity fold (TYK2/JAK2) [2]: >1818 fold
IC50 [3]: 5.5 nM

CC(=O)Nc1cc(Nc2nc(S(C)(=O)=O)ccc2C)c(-c2ccn(C)n2)cn1 [Example J27, N-(5-(1-methyl-1H-pyrazol-3-yl)-4-((3-methyl-6-(methylsulfonyl)pyridin-2-yl)amino)pyridin-2-yl)acetamide]
IC50 [1]: 0.04 nM
IC50 [2]: > 10 µM
Selectivity fold (TYK2/JAK2) [2]: >22779 fold
IC50 [3]: 0.439 nM

CC(=O)Nc1cc(Nc2cccc(S(=O)(=O)C3CC3)n2)c(-c2ccn(C)n2)cn1 [Example J28, N-(4-((6-(cyclopropylsulfonyl)py-ridin-2-yl)amino)-5-(1-methyl-1H-pyrazol-3-yl)pyridin-2-yl)acetamide]
IC50 [1]: 0.053 nM
IC50 [2]: > 10 µM
Selectivity fold (TYK2/JAK2) [2]: >3184 fold
IC50 [3]: 3.14 nM

CC(=O)Nc1cc(Nc2cccc(S(=O)(=O)C(C)C)n2)c(-c2ccn(C)n2)cn1 [Example J29, N-(4-((6-(isopropylsulfonyl)pyri-din-2-yl)amino)-5-(1-methyl-1H-pyrazol-3-yl)pyridin-2-yl)acetamide]
IC50 [1]: 0.045 nM
IC50 [2]: > 10 µM
Selectivity fold (TYK2/JAK2) [2]: >805 fold
IC50 [3]: 12.4 nM

CC(=O)Nc1cc(Nc2cc(F)cc(S(C)(=O)=O)c2)c(-c2ccn(C)n2)cn1 [Example J30, N-(4-((3-fluoro-5-(methylsulfonyl)phenyl)amino)-5-(1-methyl-1H-pyrazol-3-yl)pyridin-2-yl)acetamide]
IC50 [1]: 0.054 nM
IC50 [2]: > 10 µM
Selectivity fold (TYK2/JAK2) [2]: >2074 fold
IC50 [3]: 4.82 nM

CC(=O)Nc1cc(Nc2cc(Cl)cc(S(C)(=O)=O)c2)c(-c2ccn(C)n2)cn1 [Example J31, N-(4-((3-chloro-5-(methylsulfonyl)phenyl)amino)-5-(1-methyl-1H-pyrazol-3-yl)pyridin-2-yl)acetamide]
IC50 [1]: 0.076 nM
IC50 [2]: > 10 µM
Selectivity fold (TYK2/JAK2) [2]: >668 fold
IC50 [3]: 15 nM

CC(=O)Nc1cc(Nc2cc(C(F)F)cc(S(C)(=O)=O)c2)c(-c2ccn(C)n2)cn1 [Example J32, N-(4-((3-(difluoromethyl)-5-(methylsulfonyl)phenyl)amino)-5-(1-methyl-1H-pyrazol-3-yl)pyridin-2-yl)acetamide]
IC50 [1]: 0.079 nM
IC50 [2]: > 10 µM
Selectivity fold (TYK2/JAK2) [2]: >1137 fold
IC50 [3]: 8.79 nM

COCc1cc(Nc2cc(NC(C)=O)ncc2-c2ccn(C)n2)cc(S(C)(=O)=O)c1 [Example J34, N-(4-((3-(methoxymethyl)-5-(methylsulfonyl)phenyl)amino)-5-(1-methyl-1H-pyrazol-3-yl)pyridin-2-yl)acetamide]
IC50 [1]: 0.067 nM
IC50 [2]: > 10 µM
Selectivity fold (TYK2/JAK2) [2]: >1031 fold
IC50 [3]: 9.69 nM

COCCOc1cc(Nc2cc(NC(C)=O)ncc2-c2ccn(C)n2)cc(S(C)(=O)=O)c1 [Example J35, N-(4-((3-(2-methoxyethoxy)-5-(methylsulfonyl)phenyl)amino)-5-(1-methyl-1H-pyrazol-3-yl)pyridin-2-yl)acetamide]
IC50 [1]: 0.036 nM
IC50 [2]: > 10 µM
Selectivity fold (TYK2/JAK2) [2]: >1230 fold
IC50 [3]: 8.13 nM

CC(=O)Nc1cc(Nc2cc(OC3CC3)cc(S(C)(=O)=O)c2)c(-c2ccn(C)n2)cn1 [Example J36, N-(4-((3-cyclopropoxy-5-(methylsulfonyl)phenyl)amino)-5-(1-methyl-1H-pyrazol-3-yl)pyridin-2-yl)acetamide]
IC50 [1]: 0.043 nM
IC50 [2]: > 10 µM
Selectivity fold (TYK2/JAK2) [2]: >1980 fold
IC50 [3]: 5.05 nM

CC(=O)Nc1cc(Nc2cc(O[C@H]3C[C@H](O)C3)cc(S(C)(=O)=O)c2)c(-c2ccn(C)n2)cn1 [Example J37, N-(4-((3-((trans)-3-hydroxycyclobutoxy)-5-(methylsulfonyl)phenyl)amino)-5-(1-methyl-1H-pyrazol-3-yl)pyridin-2-yl)acetamide]
IC50 [1]: 0.035 nM
IC50 [2]: > 10 µM
Selectivity fold (TYK2/JAK2) [2]: >523 fold
IC50 [3]: 19.1 nM

CC(=O)Nc1cc(Nc2cc(-c3ccccc3)cc(S(C)(=O)=O)n2)c(-c2ccn(C)n2)cn1 [Example J38, N-(5-(1-methyl-1H-pyrazol-3-yl)-4-((6-(methylsulfonyl)-4-phenylpyridin-2-yl)amino)pyridin-2-yl)acetamide]
IC50 [1]: 0.024 nM
IC50 [2]: > 10 µM
Selectivity fold (TYK2/JAK2) [2]: >5050 fold
IC50 [3]: 1.98 nM

CC(=O)Nc1cc(Nc2cc(Oc3ccccc3)cc(S(C)(=O)=O)n2)c(-c2ccn(C)n2)cn1 [Example J39, N-(5-(1-methyl-1H-pyrazol-3-yl)-4-((6-(methylsulfonyl)-4-phenoxypyridin-2-yl)amino)pyridin-2-yl)acetamide]
IC50 [1]: 0.036 nM
IC50 [2]: > 10 µM
Selectivity fold (TYK2/JAK2) [2]: >935 fold
IC50 [3]: 10.7 nM
